Entries after “also recorded” stand apart in the source; their conditions may differ.

The target of data set [1] is T1, 6-phosphogluconate dehydrogenase (6PGD) (Homo sapiens, UniProt P52209).
T1 sequence (P52209 1-483): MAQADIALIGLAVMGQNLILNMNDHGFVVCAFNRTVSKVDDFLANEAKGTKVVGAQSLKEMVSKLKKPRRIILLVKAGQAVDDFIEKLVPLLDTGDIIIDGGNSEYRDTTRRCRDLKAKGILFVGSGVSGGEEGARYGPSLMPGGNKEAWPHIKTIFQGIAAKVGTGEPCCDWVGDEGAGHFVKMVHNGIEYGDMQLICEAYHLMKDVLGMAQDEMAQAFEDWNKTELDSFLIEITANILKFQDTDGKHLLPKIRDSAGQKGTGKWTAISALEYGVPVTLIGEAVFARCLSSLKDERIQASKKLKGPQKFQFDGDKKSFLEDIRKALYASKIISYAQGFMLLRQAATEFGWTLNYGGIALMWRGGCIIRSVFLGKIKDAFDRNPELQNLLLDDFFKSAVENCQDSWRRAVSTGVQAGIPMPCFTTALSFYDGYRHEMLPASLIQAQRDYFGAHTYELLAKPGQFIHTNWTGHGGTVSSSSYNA
The experiment in a line: 6PGD enzyme activity in vitro. It is filed as biochemical.

In a further data set the target is T2, fumarate hydratase (FH) (Homo sapiens, UniProt P07954).
T2 sequence (P07954 45-510): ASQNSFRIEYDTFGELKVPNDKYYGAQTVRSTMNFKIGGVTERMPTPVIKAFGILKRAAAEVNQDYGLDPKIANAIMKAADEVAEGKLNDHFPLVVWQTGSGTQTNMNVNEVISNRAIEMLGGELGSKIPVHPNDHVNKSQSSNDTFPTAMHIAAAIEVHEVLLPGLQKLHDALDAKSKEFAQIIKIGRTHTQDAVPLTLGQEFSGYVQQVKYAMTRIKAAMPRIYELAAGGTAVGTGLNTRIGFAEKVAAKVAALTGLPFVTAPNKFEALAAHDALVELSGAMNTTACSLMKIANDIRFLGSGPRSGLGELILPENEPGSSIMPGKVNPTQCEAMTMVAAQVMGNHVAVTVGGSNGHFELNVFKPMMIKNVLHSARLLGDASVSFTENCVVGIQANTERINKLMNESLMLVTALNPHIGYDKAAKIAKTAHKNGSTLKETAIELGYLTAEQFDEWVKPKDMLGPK
The experiment in a line: FH enzyme activity in vitro. It is filed as biochemical.

Data set [2] deals with T3, GDH1 (Homo sapiens, UniProt P00367). The note with it: cited from earlier work.
T3 sequence (P00367 54-558): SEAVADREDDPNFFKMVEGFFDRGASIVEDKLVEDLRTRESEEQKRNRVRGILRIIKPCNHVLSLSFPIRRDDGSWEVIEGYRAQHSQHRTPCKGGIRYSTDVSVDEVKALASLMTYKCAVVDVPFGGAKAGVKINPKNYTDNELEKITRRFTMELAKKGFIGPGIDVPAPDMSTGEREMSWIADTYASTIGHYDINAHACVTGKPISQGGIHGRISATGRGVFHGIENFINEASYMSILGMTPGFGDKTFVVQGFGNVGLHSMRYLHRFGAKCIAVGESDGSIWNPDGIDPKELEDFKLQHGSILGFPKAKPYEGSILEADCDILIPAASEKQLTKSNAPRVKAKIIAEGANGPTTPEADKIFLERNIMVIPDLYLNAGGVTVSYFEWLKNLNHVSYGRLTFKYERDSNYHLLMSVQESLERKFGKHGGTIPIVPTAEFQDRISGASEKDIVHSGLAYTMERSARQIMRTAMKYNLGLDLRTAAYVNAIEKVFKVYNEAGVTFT
The subject of data set [3] is H1299 and MDA-MB231 cells. The experiment in a line: Fumarate, GPx activity and ROS levels in R162-treated cells. The class given is cell-based, human. As to the method: (§1) GDH1 enzyme activity assay was performed. Total cell lysates (20 microg) or 100 ng of purified GDH1 was added to a reaction mixture containing 50 mM triethanolamine (pH 8.0), 100 mM ammoniumacetate, 100 microM NADPH, and 2.6 mM EDTA. […] GPx, SOD, TRX, GSR, and CAT enzyme activities were determined by using commercially available kits from Biovision according to the manufacturer's instructions. PRX enzyme activity was assayed by coupling its activity to oxidation of NADPH via TRXs.

In data set [4] the test system is H1299 GDH1 knockdown xenograft. The experiment in a line: NAC rescue in H1299 GDH1 knockdown xenograft mice. The class given is in vivo. To be noted: NAC 10 mg/ml drinking water.
Experimental: Nude mice (athymic nu/nu, female, 4-6 weeks old; Harlan) were subcutaneously injected with H1299 cells harboring empty vector on the left flank, and cells with stable knockdown of GDH1 on the right flank, respectively. For the NAC rescue experiment, mice of the NAC rescue group were treated with NAC drinking water at 10 mg/ml from 3 days after H1299-GDH1 shRNA cells injection for 42 days. […] Tumor growth was recorded by measurement of two perpendicular diameters of the tumors, and tumor size was calculated. The tumors were harvested and weighed at the experimental endpoint.
Nude mice were subcutaneously injected with control H1299 cells harboring empty vector or GDH1 knockdown cells. NAC at a concentration of 10 mg/ml was administered via drinking water to half of the mice injected with GDH1 knockdown cells.
Data set [5] concerns GDH1 knockdown cells (H1299, MDA-MB231). In words: Rescue experiments in GDH1 knockdown cancer cells. It is filed as cell-based, human. As to the method:
(§2) Adherent cells or leukemia cells were seeded in six-well plate, and cell numbers were determined by trypan blue exclusion using TC10 automated cell counter (Bio-Rad).

In a further data set the target is T4, mitochondrial GDH (Homo sapiens, UniProt P00367).
T4 construct: GDH activity in cancer cells treated with R162 (20 microM); endogenous in cells; host or cells: cancer cells (probably H1299 and MDA-MB231)
T4 sequence (P00367 54-558): as above
In words: GDH activity in cancer cells treated with compound. It is filed as cell-based. To be noted: compared with purpurin; R162 20 microM. As to the method: as §1

The test system of the next data set is H1299 xenograft. In words: H1299 xenograft nude mice, R162 treatment. It is filed as in vivo. As to the method: Nude mice (athymic nu/nu, female, 4-6 weeks old; Harlan) were subcutaneously injected with H1299 cells harboring empty vector on the left flank, and cells with stable knockdown of GDH1 on the right flank, respectively. For the NAC rescue experiment, mice of the NAC rescue group were treated with NAC drinking water at 10 mg/ml from 3 days after H1299-GDH1 shRNA cells injection for 42 days. To evaluate the efficacy of R162, the drug was administered from a day after H1299 cells injection by daily intraperitoneal injection of 30 mg/kg for 35 days. Fifty percent of DMSO in PBS was as a diluent control. Tumor growth was recorded by measurement of two perpendicular diameters of the tumors, and tumor size was calculated. The tumors were harvested and weighed at the experimental endpoint. Tumor proliferation was determined by Ki-67 IHC staining.
An in vivo R162 treatment was performed using H1299-xenograft nude mice. A day after xenograft injection, mice were divided into two groups (n=8 per group) and treated with either R162 ([…]) or control DMSO for 35 days.

For data set [6], the system named is mononucleocytes in peripheral blood samples from healthy human donors. In words: Cell viability of mononucleocytes from healthy donors. The class given is cell-based.
Data set [7] has as its target T3, GDH1. The experiment in a line: GDH1 enzyme activity assay with purified GDH1. The class given is biochemical. The note with it: for potency and specificity for GDH1 inhibition in comparison of purpurin, R162 and EGCG: in vitro and in cancer cells; for inhibitory effect on GDH1 enzyme activity in vitro: purified GDH1. As to the method: as §1
Data set [8] in a line: In vivo toxicity study (hematology, histopathology). Set-up: species or system mice. As to the method:
The in vivo efficacy of R162 in the treatment of xenograft tumor mouse models was tested. For initial in vivo toxicity studies, 30 mg/kg/day of R162 was administered to mice for 30 days by intraperitoneal injection.

The subject of data set [9] is HaCaT, MRC-5 and HFF cells. In words: Cell viability in control proliferating human cells. The class given is cell-based. The note with it: MRC-5, HFF control proliferative human cells.
Data set [10] concerns the target T3, GDH1. In words: Thermal melt shift assay. It is filed as binding. The note with it: increasing concentrations of R162. As to the method: To examine the interaction between GDH1 and R162, a thermal melt shift assay was performed.
For data set [11], the system named is primary leukemia cells from myeloid leukemia patients. In words: Cell viability of primary leukemia cells. The class given is cell-based, human.
Another data set is described as follows: Cell permeability. It is filed as in vitro ADME.
The subject of data set [12] is human lung cancer, breast cancer, and leukemia cell lines. The experiment in a line: Cell viability in cancer cell lines. It is filed as cell-based.
Data set [13] concerns H1299 and MDA-MB231 cells. The experiment in a line: Cell proliferation assay (cell counting). The class given is cell-based, human. As to the method:
as §2

Data set [14] addresses T5, GPx1 (Homo sapiens, UniProt P07203).
T5 construct: made in house; host or cells: 293T cells (transfected)
T5 sequence (P07203 1-203): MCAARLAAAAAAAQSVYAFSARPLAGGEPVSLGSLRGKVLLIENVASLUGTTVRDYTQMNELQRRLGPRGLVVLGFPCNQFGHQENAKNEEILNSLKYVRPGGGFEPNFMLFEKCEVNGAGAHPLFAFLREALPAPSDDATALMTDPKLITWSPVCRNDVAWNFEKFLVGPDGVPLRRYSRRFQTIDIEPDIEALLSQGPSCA
The experiment in a line: Radiometric 14C-fumarate/14C-alpha-KG-GPx1 binding assay. The text has this: The beads were then washed with TBS buffer. The bead-bound GPx1 protein was eluted with 10 microg flag peptides, and radioactivity was detected by liquid scintillation counting.

Data set [15] has as its target T5, GPx1. The experiment in a line: Activity of purified GPx1 in the presence of metabolites. The class given is biochemical. The note with it: physiological concentrations of metabolite; GPx1 from mammalian cells or human erythrocytes. As to the method:
as §1
GPx activity in GDH1 knockdown cells.

Data set [16] concerns the target T3, GDH1. The experiment in a line: Tryptophan fluorescence binding assay. To be noted: purified GDH1, tryptophan fluorescence binding. As to the method: Purified GDH1 was incubated with increasing concentrations of purpurin.
Where [17] appears, read: R162 20 mg/kg/day for 35 days vs control DMSO.

For `O=C(O[C@@H]1Cc2c(O)cc(O)cc2O[C@@H]1c1cc(O)c(O)c(O)c1)c1cc(O)c(O)c(O)c1` [EGCG, epigallocatechin gallate], in [1], the “effect on activity of 6PGD” value is recorded as “significantly affected activity”. At fumarate hydratase (FH), the “effect on activity of FH” value is recorded as “significantly affected activity”. The “GDH1 inhibition as reported” value at GDH1 [2] is “reported to inhibit GDH1 activity”.

`CC(=O)N[C@@H](CS)C(=O)O` [NAC, N-acetylcysteine]: the “rescue of R162 effects (fumarate, GPx activity, ROS, cell proliferation)” value in [3] (R162-treated H1299 and MDA-MB231 cells) is reported as “significantly rescued”. The “rescue of attenuated tumor growth” value in data set [4] is “partially rescued”. In [5], the “rescue of increased ROS” value is recorded as “significantly rescued” and the “rescue of reduced cell proliferation” value is on record as “significantly rescued”.

For `C=CCc1ccc2c(c1O)C(=O)c1ccccc1C2=O` [R162, 2-allyl-1-hydroxyanthracene-9,10-dione], the “inhibitory effect on mitochondrial GDH activity in cancer cells” value on mitochondrial GDH is “more potent inhibitory effects”. In the data set on H1299 xenograft (setting [17]), the tumor growth entry is “significantly decreased” and the tumor masses result is “significantly decreased”. Besides, the “GDH1 activity in resected tumors” value in the data set with H1299 xenograft (xenograft nude mice) was “effectively inhibited GDH1 activity”. For the same molecule, in data set [6], the cell viability result is reported as “did not affect cell viability”. The “mode of inhibition (Lineweaver-Burk plot)” value on GDH1 [7] (different concentrations of GDH1 substrate alpha-KG) is given as “mixed model inhibitor”. Moreover, at GDH1 [7], the “potency and specificity for GDH1 inhibition in comparison of purpurin, R162 and EGCG” value was “more potent and specific”; the “inhibitory effect on GDH1 enzyme activity in vitro” value is reported as “potent GDH1 inhibitor”. Moreover, in data set [8] (30 mg/kg/day for 30 days, intraperitoneal, vs vehicle), the histopathological change entry is given as “did not result in a significant histopathological change”. For the same molecule, in data set [8] (mice, 30 mg/kg/day), the Basophils is given as 0.105 ± 0.06 ×10^3/μl, the Eosinophils is on record as 0.21 ± 0.07 ×10^3/μl, the HCT is on record as 45.95 ± 3.74% and the HGB came out at 11.1 ± 1.55 g/dL. Besides, in data set [8] (mice, 30 mg/kg/day), the LYM was 3.145 ± 0.10 ×10^3/μl, the MCH came out at 13.35 ± 0.91 pg, the MCHC was found to be 24.1 ± 1.41 g/dL and the MCV was 55.35 ± 0.49 fL. For the same molecule, in [8] (mice, 30 mg/kg/day), the MONO is 0.165 ± 0.007 ×10^3/μl, the MPV was 6.05 ± 0.21 fL, the NEU is given as 1.71 ± 0.18 ×10^3/μl and the RBC is reported as 8.3 ± 0.60 ×10^6/μl. In data set [8] (mice, 30 mg/kg/day), the RDW is 18.5 ± 0.56% and the WBC is 5.33 ± 0.41 ×10^3/μl. The cell viability result in data set [9] is reported as “but not in human proliferating cells”. For the same molecule, in data set [3] (H1299 and MDA-MB231 cells), the GPx activity entry was “attenuated GPx activity” and the intracellular fumarate levels entry is listed as “decreased intracellular fumarate levels”. The ROS levels result in data set [3] (cancer cells (H1299, MDA-MB231) treated with R162) was “elevated ROS levels; also recorded: increased ROS levels”. In addition, the “melting temperature (Tm) of GDH1” value on GDH1 [10] is “raised the melting temperature (Tm) in a dose-dependent manner”. Further, the cell viability entry in [11] is “decreased cell viability”. The cell permeability result in the data set “Cell permeability” was “more cell-permeable than purpurin”. The cell viability result in data set [12] is given as “attenuated cell viability”. Also, the cell proliferation entry in data set [13] is reported as “reduced cell proliferation”.

The Kd is the equilibrium constant for the complex coming apart. Turning to `O=C(O)/C=C/C(=O)O` [fumarate], the “retention of 14C-labeled metabolite on GPx1” value on GPx1 [14] was “retained on GPx1”. Further, the Kd at GPx1 [14] (read-out: Kd value of the GPx1-fumarate interaction) turned out to be 75.5 ± 5.22 µM. The “activity of purified human GPx1” value on GPx1 [15] was “significantly increased”.

By Ki is commonly meant the dissociation constant of the complex between target and ligand, obtained from inhibition or displacement. For `O=C1c2ccccc2C(=O)c2c(O)c(O)cc(O)c21` [purpurin, reference compound], at GDH1 [7], the “potency and specificity for GDH1 inhibition in comparison of purpurin, R162 and EGCG” value was “more potent and specific”; the “inhibitory effect on GDH1 enzyme activity in vitro” value is recorded as “dramatic inhibitory effects”. The inhibition constant Ki on GDH1 [7] (recombinant, purified active GDH1, in vitro GDH activity assay) came to 1.9 ± 0.26 µM. In the data set “Cell permeability”, the cell permeability result was “not cell permeable”. The same molecule yielded a Kd at GDH1 [16] of 11.5 ± 1.17 µM.

The values above are taken from patent publication US9801898B2, “Glutamate dehydrogenase 1 inhibitors and methods of treating cancer” (Emory University, priority 2015, dated 2017).
